According to patent publication US20090285796A1, “MUTANT JAK3 KINASE IN HUMAN LEUKEMIA” (CELL SIGNALING TECHNOLOGY, INC., priority 2006, published 2009):

Assays:
CMK cells [1] = assay: CellTiter 96 AQueous One cell proliferation assay with JAK I; assay type: cell-based, human; conditions: seventy hours, increasing doses up to 2 micrograms/ml
Experimental: (§1) JAK I (Calbiochem, San Diego, Calif.) is a potent inhibitor of the JAK family of kinases, including JAK3. To confirm that JAK3 is driving the proliferation of CMK cells, the effect of JAK I on the growth and/or viability of CMK cells was examined. CMK and K562 cells (as a control) were treated for seventy hours with increasing doses of JAK I inhibitor up to 2 micrograms/ml. The number of viable cells was determined with the CellTiter 96 AQueous One solution cell proliferation assay (Promega). Apoptosis was measured with a fluorescent stain measuring annexin V.

STAT5 = assay: Western blot of STAT5 phosphorylation after JAK I; assay type: cell-based, human; conditions: CMK cells, range of inhibitor concentrations
Experimental: AML-193, GDM-1, CMK, K562 and Ba/F3 cells were obtained from the German National Resource Centre for Biological Material (DSMZ). GF-D8 cells were generously provided by Dr. Orietta Spinelli, Laboratorio Paolo Belli, Bergamo, Italy. All cell lines were maintained in RPMI 1640 supplemented with 10% FCS, 1 unit/mL penicillin G, and 1 μg/mL streptomycin at 37° C. and 5% CO2. Western blotting was carried out according to standard methods, following the Western Blotting Protocol (Cell Signaling Technology, Inc., 2005-2006 Catalogue).
To further confirm the effect of the JAK I on the CMK cell line, Western blot analysis (as described above) was performed following exposure to a range of inhibitor concentrations, and the activity of the JAK3 downstream target, STAT5 examined (see FIG. 3C).

K562 cells = assay: CellTiter 96 AQueous One cell proliferation assay with JAK I, control cell line; assay type: cell-based; conditions: control cell line K562, seventy hours, up to 2 micrograms/ml
Experimental: as §1

CMK cells [2] = assay: Apoptosis by annexin V staining with JAK I; assay type: cell-based, human; conditions: increasing concentrations
Experimental: as §1

[3] = system: human AML cell line (CMK); conditions: CMK cells expressing mutant (A572V) JAK3
Text: (§2) CP-690,550, which specifically binds to and blocks the ATP-binding site of JAK3 kinase, thereby preventing phosphorylation and activation of this enzyme, is commercially available and some of its properties have been described. See, e.g. Borne et al., Tranplantation 80 (12): 1756-1764 (2005); Paniagua et al., Tranplantation 80 (9): 1283-1292 (2005).

[4] = system: control cells that do not express the mutant JAK3 protein; conditions: control cells not expressing mutant JAK3
Text: as §2

## CC(C)(C)c1nc2c3cc[nH]c(=O)c3c3cc(F)ccc3c2[nH]1 [JAK I]
CMK cells [1]
  cell proliferation: inhibition of cell proliferation
  viability: significant decrease in viability
STAT5
  phosphorylation of STAT5: inhibited phosphorylation
K562 cells
  growth and viability: no significant effect
CMK cells [2]
  apoptosis as measured by annexin V staining: increase in apoptosis

## C[C@@H]1CCN(C(=O)CC#N)C[C@@H]1N(C)c1ncnc2[nH]ccc12 [CP-690,550]
[3]
  growth and survival: selectively inhibited the growth and survival
[4]
  growth and survival: not in control cells
